Tested on: formation of kallikrein
Assay: Inhibitory action against the formation of kallikrein (kaolin-activated human plasma, synthetic substrate)
Type: biochemical
Conditions: human plasma diluted with saline, kaolin activation, substrate D-Pro-Phe-Arg-p-nitroaniline
Procedure: Kallikrein is a group of proteinase widely distributed in the plasma and tissues of various kinds of animals. […] The inhibitory action of the substance of the present invention against the formation of kallikrein was assayed according to the method described in Example 1 of European Patent Publication No.0259857. That is, in the primary reaction, kaolin suspension was added to the human plasma diluted with physiological saline. After a certain while, Lima Bean trypsin inhibitor was added to terminate the activation of kallikrein. In the second reaction, the amount of kallikrein formed in the primary reaction was measured by the use of a synthetic substrate specific to kallikrein, such as D-Pro-Phe-Arg-p-nitroaniline. In the above reaction system, the activity of the test substance to inhibit the formation of kallikrein was measured by mixing the test substance with the human plasma prior to addition of kaolin suspension.

CC(C(=O)O)c1cccc(C(=O)c2ccccc2)c1 (stereo not shown) [Ketoprofen]
IC50 = Concentration 50% inhibiting the formation of kallikrein: 700 µg/mL

From patent publication US5057324A, “Kallikrein inhibitor substance, a process for preparation and pharmaceutical compositions thereof” (priority 1987, dated 1991)
